The results in this text go back to patent publication US5747500A, “Antiviral 2, 4-pyrimidinedione derivatives” (priority 1993, dated 1998).

One data set relates to HIV. The experiment in a line: inhibition of HIV-induced cytopathic effect in MT-4 cells (MTT method). Type of data set: cell-based. Conditions: for EC50: Human immunodeficiency virus 1, MT4, HIV-infected MT-4 cells, 1000 CCID50, 4 or 5 day incubation at 37° C., MTT method, read-out: ED50: Effective concentration for the inhibition of the proliferation of HIV by 50%; for S.I.: Selectivity index (CD50/ED50): ratio CD50/ED50, MT-4 cells. As for the experimental part: The anti-HIV assays were based on the inhibition of the virus-induced cytopathic effect in MT-4 cells as described in J. Virol. Methods, 16, 171 (1987). Briefly, MT-4 cells were suspended in culture medium at 2.5×10^5 cells/ml and infected with 1000 CCID50 (50% cell culture infective dose) of HIV. Immediately, after virus infection, 100 μl of the cell suspension was brought into each well of a flat-bottomedmicrotiter tray containing various concentrations of the test compounds. After a 4 or 5 day incubation at 37° C., the number of viable cells was determined by the 3-(4,5-dimethylthiazol-2-yl)-2,5-diphenyltetrazoliumbromide (MTT) method, as disclosed in J. Virol. Methods, 20, 309 (1988).
ED50 : Effective concentration for the inhibition of the
proliferation of HIV by 50%

Data set [1] in a line: cytotoxicity: viability of mock-infected MT-4 host cells (MTT method). Conditions: human, mt-4 cells, read-out: CD50: Cytotoxic concentration that causes death of cells by 50%. The class given is cell-based. As for the experimental part: The cytotoxicity of the compounds of the present invention was assessed in parallel with their antiviral activity. It was based on the viability of mock-infected host cells as determined by the MTT methods (se J. Virol. Methods, 20, 309 (1988)).
CD50 : Cytotoxic concentration that causes death of cells by 50%

In brackets after ≈: the same amount, converted by molar mass. Some results are limits rather than exact numbers.

Take `Cc1cc(C)cc(C(=O)c2c(C(C)C)c(=O)[nH]c(=O)n2C/C=C/CN=[N+]=[N-])c1` [Example 74, 1-(4-azido-trans-2-butenyl)-5-isopropyl-6-(3,5-dimethylbenzoyl)-2,4-pyrimidinedione]: in the data set on HIV, the EC50 is less than 0.009 µg/mL and the “S.I.: Selectivity index (CD50/ED50)” value was greater than 954. Besides, in data set [1], the CC50 is 8.59 µg/mL (≈ 22.5 µM).

With `C/C=C/Cn1c(Sc2cc(C)cc(C)c2)c(C(C)C)c(=O)[nH]c1=O` [Example 27], in the data set on HIV, the EC50 was less than 0.009 µg/mL and the “S.I.: Selectivity index (CD50/ED50)” value is recorded as greater than 740. In data set [1], the CC50 amounted to 6.66 µg/mL (≈ 19.3 µM).

Consider `Cc1cc(C)cc(C(=O)c2c(C(C)C)c(=O)[nH]c(=O)n2C/C=C/CO)c1` [Example 76, 1-(4-hydroxy-trans-2-butenyl)-5-isopropyl-6-(3,5-dimethylbenzoyl)-2,4-pyrimidinedione], for which, in the data set with HIV, the EC50 is less than 0.025 µg/mL and the “S.I.: Selectivity index (CD50/ED50)” value is listed as > 1,679. The CC50 in data set [1] was determined as 42 µg/mL (≈ 118 µM).

On to `Cc1cc(C)cc(Cc2c(C(C)C)c(=O)[nH]c(=O)n2CC#Cc2ccccc2)c1` [Example 42, 1-(3-phenyl-2-propynyl)-5-isopropyl-6-(3,5-dimethylbenzyl)-2,4-pyrimidinedione], for which, in the data set with HIV, the EC50 was less than 0.009 µg/mL and the “S.I.: Selectivity index (CD50/ED50)” value is recorded as greater than 824. Also, the CC50 in data set [1] turned out to be 7.42 µg/mL (≈ 19.2 µM).

`COC(=O)/C=C/Cn1c(Oc2cc(C)cc(C)c2)c(C(C)C)c(=O)[nH]c1=O` [Example 66]: in the data set with HIV, the EC50 is less than 0.32 µg/mL and the “S.I.: Selectivity index (CD50/ED50)” value was greater than 245. In addition, the CC50 in data set [1] was found to be 78.6 µg/mL (≈ 211 µM).

Consider `CCc1c(Oc2cc(C)cc(C)c2)n(C/C=C/CO)c(=O)[nH]c1=O` [Example 83, 1-(4-hydroxy-trans-2-butenyl)-5-ethyl-6-(3,5-dimethylphenoxy)-2,4-pyrimidinedione], for which, in the data set with HIV, the EC50 is less than 0.81 µg/mL and the “S.I.: Selectivity index (CD50/ED50)” value was greater than 31. The CC50 in data set [1] was 25.5 µg/mL (≈ 77.2 µM).

In the case of `CCc1c(Sc2cc(C)cc(C)c2)n(C/C=C/CO)c(=O)[nH]c1=O` [Example 78, 1-(4-hydroxy-trans-2-butenyl)-5-ethyl-6-(3,5-dimethylphenylthio)-2,4-pyrimidinedione], in the data set with HIV, the EC50 was less than 0.97 µg/mL and the “S.I.: Selectivity index (CD50/ED50)” value is listed as greater than 29. In data set [1], the CC50 is 29 µg/mL (≈ 83.6 µM).

Consider `CC#CCn1c(C(=O)c2cc(C)cc(C)c2)c(C(C)C)c(=O)[nH]c1=O` [Example 55, 1-(2-butynyl)-5-isopropyl-6-(3,5-dimethylbenzoyl)-2,4-pyrimidinedione], for which, in the data set on HIV, the EC50 is less than 0.32 µg/mL and the “S.I.: Selectivity index (CD50/ED50)” value is recorded as greater than 130. The CC50 in data set [1] is 41.7 µg/mL (≈ 123 µM).

For the compound `C=CCn1c(Cc2cc(C)cc(C)c2)c(CC)c(=O)[nH]c1=O` [Example 34, 1-allyl-5-ethyl-6-(3,5-dimethylbenzyl)-2,4-pyrimidinedione], in the data set with HIV, the EC50 is less than 0.32 µg/mL and the “S.I.: Selectivity index (CD50/ED50)” value was greater than 38. Besides, the CC50 in data set [1] came out at 12.3 µg/mL (≈ 41.3 µM).

With `CCc1c(C(=O)c2cc(C)cc(C)c2)n(C/C=C/COC(C)=O)c(=O)[nH]c1=O` [Example 80, 1-(4-acetoxy-trans-2-butenyl)-5-ethyl-6-(3,5-dimethylbenzoyl)-2,4-pyrimidinedione], in the data set on HIV, the EC50 was less than 0.033 µg/mL and the “S.I.: Selectivity index (CD50/ED50)” value is reported as > 1,345. For the same compound, the CC50 in data set [1] turned out to be 44.4 µg/mL (≈ 115 µM).

On to `CCc1c(Cc2cc(C)cc(C)c2)n(C/C=C/c2ccccc2)c(=O)[nH]c1=O` [Example 35], for which, in the data set with HIV, the EC50 is less than 0.009 µg/mL and the “S.I.: Selectivity index (CD50/ED50)” value was determined as 642. Also, the CC50 in data set [1] was determined as 5.78 µg/mL (≈ 15.4 µM).

In the case of `C/C=C/Cn1c(Sc2ccccc2)c(CC)c(=O)[nH]c1=O` [Example 13], in the data set with HIV, the EC50 is less than 0.32 µg/mL and the “S.I.: Selectivity index (CD50/ED50)” value is on record as greater than 50. Also, the CC50 in data set [1] was determined as 16.2 µg/mL (≈ 53.5 µM).

With `Cc1cc(C)cc(Cc2c(C(C)C)c(=O)[nH]c(=O)n2C/C=C/c2ccccc2)c1` [Example 6, 1-(trans-cinnamyl)-5-isopropyl-6-(3,5-dimethylbenzyl)-2,4-pyrimidinedione], in the data set with HIV, the EC50 is less than 0.009 µg/mL and the “S.I.: Selectivity index (CD50/ED50)” value is greater than 892. In data set [1], the CC50 is 8.03 µg/mL (≈ 20.7 µM).

On to `COC(=O)/C=C/Cn1c(C(=O)c2cc(C)cc(C)c2)c(C(C)C)c(=O)[nH]c1=O` [Example 54], for which, in the data set on HIV, the EC50 was less than 0.01 µg/mL and the “S.I.: Selectivity index (CD50/ED50)” value is on record as > 3,005. In data set [1], the CC50 is 30.1 µg/mL (≈ 78.2 µM).

Take `CCOCn1c(Cc2cc(C)cc(C)c2)c(CC)c(=O)[nH]c1=O` [Ref. 1, 1ethoxymethyl-5-ethyl-6-(3,5-dimethylbenzyl)-2,4-pyrimidinedione, reference compound]: in the data set with HIV, the EC50 was less than 0.009 µg/mL and the “S.I.: Selectivity index (CD50/ED50)” value is reported as > 4,962. The CC50 in data set [1] was determined as 44.7 µg/mL (≈ 141 µM).

`CCc1c(Sc2cc(C)cc(C)c2)n(CC=CC(=O)O)c(=O)[nH]c1=O` [Example 77, 1-(carboxyallyl)-5-ethyl-6-(3,5-dimethylphenylthio)-2,4-pyrimidinedione]: in the data set with HIV, the EC50 is less than 0.902 µg/mL and the “S.I.: Selectivity index (CD50/ED50)” value is listed as greater than 75. For the same compound, the CC50 in data set [1] worked out at 68.3 µg/mL (≈ 190 µM).

As to `CCc1c(Sc2cc(C)cc(C)c2)n(COCc2ccccc2)c(=O)[nH]c1=O` [Ref. 2, 1benzyloxymethyl-5-ethyl-6-(3,5-dimethylphenylthio)-2,4-pyrimidinedione, reference compound], in the data set on HIV, the EC50 is less than 0.009 µg/mL and the “S.I.: Selectivity index (CD50/ED50)” value is listed as greater than 672. For the same compound, the CC50 in data set [1] stood at 6.05 µg/mL (≈ 15.3 µM).

As for `Cc1cc(C)cc(C(=O)c2c(C(C)C)c(=O)[nH]c(=O)n2CC#Cc2ccccc2)c1` [Example 56, 1-(3-phenyl-2-propynyl)-5-isopropyl-6-(3,5-dimethylbenzoyl)-2,4-pyrimidinedione], in the data set with HIV, the EC50 was less than 0.009 µg/mL and the “S.I.: Selectivity index (CD50/ED50)” value was greater than 75.1. Moreover, in data set [1], the CC50 came to 6.76 µg/mL (≈ 16.9 µM).

Take `CCc1c(Sc2ccccc2)n(CC=C(C)C)c(=O)[nH]c1=O` [Example 15, 1-(3-methyl-2-butenyl)-5-ethyl-6-phenylthio-2,4-pyrimidinedione]: in the data set on HIV, the EC50 was found to be 0.36 µg/mL (≈ 1.14 µM) and the “S.I.: Selectivity index (CD50/ED50)” value was determined as 31. The CC50 in data set [1] is 11.3 µg/mL (≈ 35.6 µM).

Regarding `CCc1c(Cc2cc(C)cc(C)c2)n(C/C=C/C(=O)OC)c(=O)[nH]c1=O` [Example 37], in the data set with HIV, the EC50 turned out to be 1.64 µg/mL (≈ 4.6 µM) and the “S.I.: Selectivity index (CD50/ED50)” value was 7.6. Further, the CC50 in data set [1] was found to be 12.5 µg/mL (≈ 35 µM).

Consider `Cc1cc(C)cc(Oc2c(C(C)C)c(=O)[nH]c(=O)n2C/C=C/c2ccccc2)c1` [Example 65], for which, in the data set with HIV, the EC50 was less than 0.009 µg/mL and the “S.I.: Selectivity index (CD50/ED50)” value is recorded as greater than 893. The CC50 in data set [1] turned out to be 8.04 µg/mL (≈ 20.6 µM).

As to `C/C=C/Cn1c(Sc2cc(C)cc(C)c2)c(CC)c(=O)[nH]c1=O` [Example 19], the “S.I.: Selectivity index (CD50/ED50)” value with HIV is given as greater than 971. For the same compound, the CC50 in data set [1] came to 8.74 µg/mL (≈ 26.4 µM).

With `CCc1c(Cc2ccccc2)n(C/C=C/c2ccccc2)c(=O)[nH]c1=O` [Example 33], in the data set on HIV, the EC50 was less than 0.032 µg/mL and the “S.I.: Selectivity index (CD50/ED50)” value is listed as greater than 268. Also, in data set [1], the CC50 stood at 8.58 µg/mL (≈ 24.8 µM).

Regarding `CCc1c(Oc2cc(C)cc(C)c2)n(CC#Cc2ccccc2)c(=O)[nH]c1=O` [Example 61, 1-(3-phenyl-2-propynyl)-5-ethyl-6-(3,5-dimethylphenoxy)-2,4-pyrimidinedione], in the data set with HIV, the EC50 was less than 0.009 µg/mL and the “S.I.: Selectivity index (CD50/ED50)” value was > 1,033. Besides, the CC50 in data set [1] came out at 9.3 µg/mL (≈ 24.8 µM).

On to `CC/C=C/Cn1c(Sc2cc(C)cc(C)c2)c(CC)c(=O)[nH]c1=O` [Example 2, 1-(trans-2-pentenyl)-5-ethyl-6-(3,5-dimethylphenylthio)-2,4-pyrimidinedione], for which, in the data set with HIV, the EC50 is less than 0.32 µg/mL and the “S.I.: Selectivity index (CD50/ED50)” value is reported as greater than 29. Moreover, the CC50 in data set [1] was determined as 8.73 µg/mL (≈ 25.3 µM).

`CCc1c(Sc2cc(C)cc(C)c2)n(C/C=C\CCl)c(=O)[nH]c1=O` [Example 23]: in the data set with HIV, the EC50 is less than 0.93 µg/mL and the “S.I.: Selectivity index (CD50/ED50)” value was greater than 41. For the same compound, the CC50 in data set [1] is 38.2 µg/mL (≈ 105 µM).

For `CCOC(=O)C=CCn1c(C(=O)c2cc(C)cc(C)c2)c(CC)c(=O)[nH]c1=O` [Example 72, 1-(ethoxycarbonylallyl)-5-ethyl-6-(3,5-dimethylbenzoyl)-2,4-pyrimidinedion], in the data set on HIV, the EC50 was less than 0.01 µg/mL and the “S.I.: Selectivity index (CD50/ED50)” value is given as greater than 685. In addition, in data set [1], the CC50 was 6.85 µg/mL (≈ 17.8 µM).

As for `C#CCn1c(C(=O)c2cc(C)cc(C)c2)c(CC)c(=O)[nH]c1=O` [Example 48, 1-propargyl-5-ethyl-6-(3,5-dimethylbenzoyl)-2,4-pyrimidinedione], in the data set with HIV, the EC50 is less than 0.39 µg/mL and the “S.I.: Selectivity index (CD50/ED50)” value was greater than 93. Also, the CC50 in data set [1] turned out to be 36.4 µg/mL (≈ 117 µM).
